According to PubChem BioAssay AID1963425 (Molecular Pharmacology Branch, DTP, NCI, 2024):

System: 323965-272-R-J2-PDC complex spheroid growth, % test/control
Assay: Anticancer human tumor 323965-272-R-J2-PDC patient-derived pancreatic carcinoma cell line growth inhibition [Asc]
Settings: for IC50: curve of first compound; for viability, T/C: stronger effect = lower value
Procedure, shortened: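 Complex solid-tumor spheroids incorporating human endothelial and mesenchymal stem cells received single agents or combinations over half-log dilution ranges anchored to clinical Cmax.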
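Further: compound exposure lasted 7 days starting three days after spheroid seeding.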
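Wherever viability, T/C is given: 100% = DMSO vehicle control wells with viability set relative to vehicle.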

NC(=O)C(=Cn1cnc(-c2cc(C(F)(F)F)cc(C(F)(F)F)c2)n1)c1cncnc1 + CNC(C)C(=O)NC1CN(S(=O)(=O)c2cccc(S(=O)(=O)N3CCC4CCC(C(=O)NC(c5ccccc5)c5ccccc5)N4C(=O)C(NC(=O)C(C)NC)C3)c2)CCC2CCC(C(=O)NC(c3ccccc3)c3ccccc3)N2C1=O
IC50 (second compound 0.00316 µM): > 300 nM
IC50 (second compound 0.01 µM): > 300 nM
IC50 (second compound 0.0316 µM): > 300 nM
IC50 (second compound 0.1 µM): > 300 nM
IC50 (second compound 0.316 µM): > 300 nM
IC50 (second compound 1 µM): > 300 nM
viability, T/C (second compound 0.00316 µM, first compound 0.000949 µM): 121%
viability, T/C (second compound 0.00316 µM, first compound 0.003 µM): 120%
viability, T/C (second compound 0.00316 µM, first compound 0.00949 µM): 97.1%
viability, T/C (second compound 0.00316 µM, first compound 0.03 µM): 99.6%
viability, T/C (second compound 0.00316 µM, first compound 0.0949 µM): 70.7%
viability, T/C (second compound 0.00316 µM, first compound 0.3 µM): 76.2%
viability, T/C (second compound 0.01 µM, first compound 0.000949 µM): 103%
viability, T/C (second compound 0.01 µM, first compound 0.003 µM): 108%
viability, T/C (second compound 0.01 µM, first compound 0.00949 µM): 109%
viability, T/C (second compound 0.01 µM, first compound 0.03 µM): 91.1%
viability, T/C (second compound 0.01 µM, first compound 0.0949 µM): 78.8%
viability, T/C (second compound 0.01 µM, first compound 0.3 µM): 62.5%
viability, T/C (second compound 0.0316 µM, first compound 0.000949 µM): 103%
viability, T/C (second compound 0.0316 µM, first compound 0.003 µM): 109%
viability, T/C (second compound 0.0316 µM, first compound 0.00949 µM): 108%
viability, T/C (second compound 0.0316 µM, first compound 0.03 µM): 86.7%
viability, T/C (second compound 0.0316 µM, first compound 0.0949 µM): 74.5%
viability, T/C (second compound 0.0316 µM, first compound 0.3 µM): 61.7%
viability, T/C (second compound 0.1 µM, first compound 0.000949 µM): 105%
viability, T/C (second compound 0.1 µM, first compound 0.003 µM): 104%
viability, T/C (second compound 0.1 µM, first compound 0.00949 µM): 104%
viability, T/C (second compound 0.1 µM, first compound 0.03 µM): 87%
viability, T/C (second compound 0.1 µM, first compound 0.0949 µM): 80.4%
viability, T/C (second compound 0.1 µM, first compound 0.3 µM): 62.5%
viability, T/C (second compound 0.316 µM, first compound 0.000949 µM): 107%
viability, T/C (second compound 0.316 µM, first compound 0.003 µM): 111%
viability, T/C (second compound 0.316 µM, first compound 0.00949 µM): 96.3%
viability, T/C (second compound 0.316 µM, first compound 0.03 µM): 93.6%
viability, T/C (second compound 0.316 µM, first compound 0.0949 µM): 77.1%
viability, T/C (second compound 0.316 µM, first compound 0.3 µM): 62.4%
viability, T/C (second compound 1 µM, first compound 0.000949 µM): 101%
viability, T/C (second compound 1 µM, first compound 0.003 µM): 104%
viability, T/C (second compound 1 µM, first compound 0.00949 µM): 77.3%
viability, T/C (second compound 1 µM, first compound 0.03 µM): 83.7%
viability, T/C (second compound 1 µM, first compound 0.0949 µM): 78.4%
viability, T/C (second compound 1 µM, first compound 0.3 µM): 71%

NC1CCC(NC2CC2c2ccccc2)CC1 (centres undefined) + CNC(C)C(=O)NC1CN(S(=O)(=O)c2cccc(S(=O)(=O)N3CCC4CCC(C(=O)NC(c5ccccc5)c5ccccc5)N4C(=O)C(NC(=O)C(C)NC)C3)c2)CCC2CCC(C(=O)NC(c3ccccc3)c3ccccc3)N2C1=O
IC50 (second compound 0.00316 µM): > 100 nM
IC50 (second compound 0.01 µM): > 100 nM
IC50 (second compound 0.0316 µM): > 100 nM
IC50 (second compound 0.1 µM): > 100 nM
IC50 (second compound 0.316 µM): > 100 nM
IC50 (second compound 1 µM): > 100 nM
viability, T/C (second compound 0.00316 µM, first compound 0.000316 µM): 96.2%
viability, T/C (second compound 0.00316 µM, first compound 0.001 µM): 91.7%
viability, T/C (second compound 0.00316 µM, first compound 0.00316 µM): 104%
viability, T/C (second compound 0.00316 µM, first compound 0.01 µM): 97%
viability, T/C (second compound 0.00316 µM, first compound 0.0316 µM): 97.6%
viability, T/C (second compound 0.00316 µM, first compound 0.1 µM): 94.2%
viability, T/C (second compound 0.01 µM, first compound 0.000316 µM): 97.6%
viability, T/C (second compound 0.01 µM, first compound 0.001 µM): 86.7%
viability, T/C (second compound 0.01 µM, first compound 0.00316 µM): 95.9%
viability, T/C (second compound 0.01 µM, first compound 0.01 µM): 101%
viability, T/C (second compound 0.01 µM, first compound 0.0316 µM): 99.3%
viability, T/C (second compound 0.01 µM, first compound 0.1 µM): 90.5%
viability, T/C (second compound 0.0316 µM, first compound 0.000316 µM): 106%
viability, T/C (second compound 0.0316 µM, first compound 0.001 µM): 94.9%
viability, T/C (second compound 0.0316 µM, first compound 0.00316 µM): 91.5%
viability, T/C (second compound 0.0316 µM, first compound 0.01 µM): 99.3%
viability, T/C (second compound 0.0316 µM, first compound 0.0316 µM): 97.2%
viability, T/C (second compound 0.0316 µM, first compound 0.1 µM): 97.1%
viability, T/C (second compound 0.1 µM, first compound 0.000316 µM): 95%
viability, T/C (second compound 0.1 µM, first compound 0.001 µM): 88.6%
viability, T/C (second compound 0.1 µM, first compound 0.00316 µM): 87.6%
viability, T/C (second compound 0.1 µM, first compound 0.01 µM): 85.3%
viability, T/C (second compound 0.1 µM, first compound 0.0316 µM): 96.1%
viability, T/C (second compound 0.1 µM, first compound 0.1 µM): 96.7%
viability, T/C (second compound 0.316 µM, first compound 0.000316 µM): 109%
viability, T/C (second compound 0.316 µM, first compound 0.001 µM): 92%
viability, T/C (second compound 0.316 µM, first compound 0.00316 µM): 88.7%
viability, T/C (second compound 0.316 µM, first compound 0.01 µM): 97.5%
viability, T/C (second compound 0.316 µM, first compound 0.0316 µM): 95.9%
viability, T/C (second compound 0.316 µM, first compound 0.1 µM): 91.2%
viability, T/C (second compound 1 µM, first compound 0.000316 µM): 93.5%
viability, T/C (second compound 1 µM, first compound 0.001 µM): 80.2%
viability, T/C (second compound 1 µM, first compound 0.00316 µM): 87%
viability, T/C (second compound 1 µM, first compound 0.01 µM): 87.3%
viability, T/C (second compound 1 µM, first compound 0.0316 µM): 109%
viability, T/C (second compound 1 µM, first compound 0.1 µM): 85.2%
